Key:
[1] = tested on: Vero 76; assay: Cytotoxicity against monkey Vero 76 cells by neutral red uptake assay; type: cell-based; conditions: chlorocebus sabaeus, vero 76
[2] = tested on: Enterovirus A71; assay: microbe, parasite or virus in culture; type: functional, organism-based; conditions: Enterovirus A, Tainin/4643/98, Vero 76, 72 h
[3] = tested on: Enterovirus A71; assay: microbe, parasite or virus in culture; type: functional, organism-based, Tainin/4643/98, Vero 76; conditions: Enterovirus A, Tainin/4643/98, Vero 76, 72 h
[4] = tested on: Vero 76; assay: Cytotoxicity against monkey Vero 76 cells by microscopic analysis; type: cell-based; conditions: chlorocebus sabaeus, vero 76
[5] = in vitro; conditions: monkey, Vero 76 cells
[6] = in vitro; conditions: monkey, Vero 76 cells; remark: listed apart in the source

| SMILES | CC50 [1] [µM] | EC50 [2] [µM] | EC50 [3] [µM] | CC50 [4] [µM] | selectivity ratio [5] | selectivity ratio [6] |
| --- | --- | --- | --- | --- | --- | --- |
| OC[C@@]12C[C@@H]1[C@@H](n1cnc3c(NCc4ccccc4)nc(Cl)nc31)[C@H](O)[C@@H]2O | > 100 | > 100 | > 100 | > 100 |  |  |
| NC(=O)c1ncn([C@H]2[C@H](O)[C@H](O)[C@]3(CO)C[C@H]23)n1 | > 50 | > 50 | > 50 | > 50 |  |  |
| CC(C)(O)[C@@H](Nc1nc(Cl)nc2c1ncn2[C@H]1[C@H](O)[C@H](O)[C@]2(CO)C[C@H]12)C1CC1 | > 100 | > 100 | > 100 | > 100 |  |  |
| CC[C@@H](Nc1nc(SC)nc2c1ccn2[C@H]1[C@H](O)[C@H](O)[C@]2(CO)C[C@H]12)C1CC1 | > 50 | 2.3 |  | > 50 | > 22 | > 3.1 |
| CC(C)[C@H](Nc1nc(Cl)nc2c1ncn2[C@H]1[C@H](O)[C@H](O)[C@]2(CO)C[C@H]12)C1CC1 | > 50 | 2.3 | 12 | > 50 |  |  |
| CCOC(=O)c1ccc(OCCC2CCN(c3ccc(C)nn3)CC2)cc1 [PIRODAVIR] | 17 | 0.57 | 0.86 | > 27 | 30 | > 31 |
| O[C@@H]1[C@H](O)[C@@H]2C[C@@H]2[C@H]1n1ccc2c(NC(C3CC3)C3CC3)nc(I)nc21 | 44 | 32 | > 100 | 100 | 1.4 |  |
| CSc1nc(N[C@H](C(C)C)C2CC2)c2ncn([C@H]3[C@H](O)[C@H](O)[C@]4(CO)C[C@H]34)c2n1 | > 100 | 66 |  | > 100 | > 1.5 |  |
| O[C@@H]1[C@H](O)[C@@H]2C[C@@H]2[C@H]1n1cnc2c(NC(C3CCC3)C3CCC3)nc(Cl)nc21 | 17 | > 17 |  | 16 |  |  |
| CC(C)C(Nc1nc(Cl)nc2c1ncn2[C@H]1[C@H](O)[C@H](O)[C@]2(CO)C[C@H]12)C(C)C | > 100 | 32 | 32 | > 100 |  |  |
| CC(C)[C@@H](Nc1nc(Cl)nc2c1ncn2[C@H]1[C@H](O)[C@H](O)[C@]2(CN)C[C@H]12)C1CC1 | 32 | > 32 | > 32 | 32 |  |  |
| OC[C@H]1O[C@@H](n2cnc3c(NC(C4CCC4)C4CCC4)ncnc32)[C@H](O)[C@@H]1O | > 100 | > 100 | > 100 | > 100 |  |  |
| OC[C@@]12C[C@@H]1[C@@H](n1cnc3c(NC(C4CCC4)C4CCC4)nc(Cl)nc31)[C@H](O)[C@@H]2O | 28 | > 28 | 16 | 50 |  | 3.1 |
| O[C@@H]1[C@H](O)[C@@H]2C[C@@H]2[C@H]1n1cnc2c(N[C@@H](CC3CC3)C3CC3)nc(Cl)nc21 | 7.6 | > 7.6 | 18 | > 50 |  | > 2.8 |
| O=C(O)[C@@]12C[C@@H]1[C@@H](n1cnc3c(NC(C4CC4)C4CC4)nc(Cl)nc31)[C@H](O)[C@@H]2O | 50 | > 50 | > 50 | > 50 |  |  |
| CC(C)(O)[C@@H](Nc1nc(Cl)nc2c1ccn2[C@H]1[C@H](O)[C@H](O)[C@]2(CO)C[C@H]12)C1CC1 | 63 | > 63 | > 100 | > 100 |  |  |
| O[C@@H]1[C@H](O)[C@@H]2C[C@@H]2[C@H]1n1cnc2c(NCc3ccccc3F)nc(Cl)nc21 | 23 | > 23 | > 50 | > 50 |  |  |
| O[C@@H]1[C@H](O)[C@@H]2C[C@@H]2[C@H]1n1cnc2c(NCC(C3CC3)C3CC3)nc(Cl)nc21 | 10 | > 10 | > 50 | > 50 |  |  |

| SMILES | CC50 [1] [µM] | EC50 [2] [µM] | EC50 [3] [µM] | CC50 [4] [µM] | selectivity ratio [5] | selectivity ratio [6] |
| --- | --- | --- | --- | --- | --- | --- |
| OC[C@H]1O[C@@H](n2cnc3c(NC(C4CCC4)C4CCC4)nc(Cl)nc32)[C@H](O)[C@@H]1O | 27 | > 27 | > 32 | 32 |  |  |
| O[C@@H]1[C@H](O)[C@@H]2C[C@@H]2[C@H]1n1cnc2c(NC(C3CC3)C3CC3)ncnc21 | > 50 | > 50 | > 50 | > 50 |  |  |
| CSC[C@@]12C[C@@H]1[C@@H](n1cnc3c(N[C@H](C(C)C)C4CC4)nc(Cl)nc31)[C@H](O)[C@@H]2O | 32 | 8.4 | > 32 | 32 | 3.8 |  |
| O=C(O)c1cnn(-c2nc(NC(C3CC3)C3CC3)c3ncn([C@H]4[C@H](O)[C@H](O)[C@@H]5C[C@@H]54)c3n2)c1 | 50 | > 50 | > 50 | > 50 |  |  |
| CC(C)(C)[C@H](Nc1nc(Cl)nc2c1ncn2[C@H]1[C@H](O)[C@H](O)[C@]2(CO)C[C@H]12)C1CC1 | > 100 | 31 | 32 | > 100 |  |  |
| Nc1nc(Cl)nc2c1ncn2[C@H]1[C@H](O)[C@H](O)[C@]2(CO)C[C@H]12 | 36 | > 36 | > 50 | > 50 |  |  |
| NNc1nc(NC(C2CC2)C2CC2)c2ncn([C@H]3[C@H](O)[C@H](O)[C@@H]4C[C@@H]43)c2n1 | 50 | > 50 | > 50 | > 50 |  |  |
| NCCNC(=O)[C@@]12C[C@@H]1[C@@H](n1cnc3c(NC(C4CC4)C4CC4)nc(Cl)nc31)[C@H](O)[C@@H]2O | 50 | > 50 | > 50 | > 50 |  |  |
| CSc1nc(N[C@@H](C2CC2)C(C)(C)O)c2ccn([C@H]3[C@H](O)[C@H](O)[C@]4(CO)C[C@H]34)c2n1 | > 100 | > 100 | > 100 | > 100 |  |  |
| CCOC(=O)[C@@]12C[C@@H]1[C@@H](n1cnc3c(NC(C4CC4)C4CC4)nc(Cl)nc31)[C@H](O)[C@@H]2O | 1.5 | > 1.5 | > 50 | > 50 |  |  |
| O[C@@H]1[C@H](O)[C@@H]2C[C@@H]2[C@H]1n1cnc2c(N[C@H](CC3CC3)C3CC3)nc(Cl)nc21 | 9.9 | 8.1 | 21 |  | 1.2 | > 2.4 |
| COC(=O)c1cnn(-c2nc(NC(C3CC3)C3CC3)c3ncn([C@H]4[C@H](O)[C@H](O)[C@@H]5C[C@@H]54)c3n2)c1 | 50 | > 50 | > 50 | > 50 |  |  |
| CC[C@H](Nc1nc(Cl)nc2c1ncn2[C@H]1[C@H](O)[C@H](O)[C@]2(CO)C[C@H]12)C1CC1 | > 50 | 5.3 |  | > 50 | > 9.4 | > 3.1 |
| O[C@@H]1[C@H](O)[C@@H]2C[C@@H]2[C@H]1n1cnc2c(NC(C3CC3)C3CC3)nc(I)nc21 | 50 | > 50 | > 50 | > 50 |  |  |
| NCCCNC(=O)[C@@]12C[C@@H]1[C@@H](n1cnc3c(NC(C4CC4)C4CC4)nc(Cl)nc31)[C@H](O)[C@@H]2O | 50 | > 50 | > 50 | > 50 |  |  |
| OC[C@H]1O[C@@H](n2cnc3c(NC(C4CC4)C4CC4)ncnc32)[C@H](O)[C@@H]1O | > 50 | > 50 | > 50 | > 50 |  |  |
| OC[C@@]12C[C@@H]1[C@@H](n1cnc3c(N[C@@H](C4CCC4)C4CC4)nc(Cl)nc31)[C@H](O)[C@@H]2O | 13 | 8 | 16 |  | 1.6 | > 3.1 |
